Reference: ChEMBL document CHEMBL5131389, “PSMA-targeted small-molecule docetaxel conjugate: Synthesis and preclinical evaluation” (Eur J Med Chem, 2022)
Values joined by “and” are separate entries in the source; they are usually repeats but may differ in a detail not shown here. Equal values may be shown once. Active and inactive are the calls of the source. No cut-off for these calls is given here.

What was measured:
PC-3 [1] = experiment: Cytotoxicity against human PC-3 cells assessed as reduction in cell viability measured after 72 hrs by MTT assay; assay type: functional
[2] = Selectivity ratio of CC50 for cytotoxicity against human PC-3 cells to CC50 for cytotoxicity against human 22Rv1 cells
PC-3 [3] = experiment: Induction of ROS generation in human PC-3 cells at 800 mV holding potential measured after 1 hr by patch clamp amplifier based optical inverted microscopic analysis; assay type: functional, cell-based
PC-3 [4] = experiment: Effect on cell stiffness in human PC-3 cells assessed as increase in young's modulus at 2.8 nM measured after 1 hr by topography based scanning ion-conductance microscopic analysis; assay type: functional
[5] = Stability of the compound in pH 5.5 buffer measured upto 96 hrs by LC-MS based mass spectrometric analysis; assay type: physicochemical; details: pH 5.5, 96 h
[6] = Stability of the compound in pH 7.4 buffer measured upto 96 hrs by LC-MS based mass spectrometric analysis; assay type: physicochemical; details: pH 7.4, 96 h
CWR22R [7] = experiment: Antitumor activity against human 22Rv1 cells xenografted in Balb/c nude mouse assessed as tumor growth inhibition at 30 mg/kg, ip administered daily for 5 days and measured at day 34 relative to control; assay type: functional; set-up: scale not given: the % may be the effect or the level left; details: time 34 day
CWR22R [8] = experiment: Antitumor activity against human 22Rv1 cells xenografted in Balb/c nude mouse assessed as tumor growth inhibition at 10 mg/kg, ip administered once in two days for three times and measured 7 days after the end of treatment relative to control; assay type: functional; details: 22Rv1, 312 h, time 13 day, read-out: TGI
CWR22R [9] = experiment: Antitumor activity against human 22Rv1 cells xenografted in Balb/c nude mouse assessed as tumor growth inhibition at 20 mg/kg, ip administered once in two days for three times and measured 7 days after the end of treatment relative to control; assay type: functional; details: 22Rv1, 312 h, time 13 day, read-out: TGI
DU-145 [10] = experiment: Antitumor activity against human DU-145 cells xenografted in BALB/c nude mouse assessed as reduction in tumor growth index at 30 mg/kg, ip measured upto 30 days; assay type: functional; set-up: scale not given: the % may be the effect or the level left; details: time <= 30 day
DU-145 [11] = experiment: Antitumor activity against human DU-145 cells xenografted in BALB/c nude mouse assessed as tumor growth inhibition at 60 mg/kg, ip measured upto 30 days; assay type: functional; details: DU-145, 720 h, time <= 30 day, read-out: TGI
[12] = Acute toxicity in Wistar rat assessed as violation of motor activity in hind limb administered intravenously as pluronic F127 formulation and measured for 14 days; details: in vivo, iv, 336 h, dose 15-279 mg/kg, time 14 day
[13] = Acute toxicity in ICR mouse assessed as coprostasis at 183 to 960 mg/kg, iv administered as pluronic F127 formulation and measured for 14 days; assay type: organism-based; details: in vivo, 336 h, dose 183-960 mg/kg, time 14 day
[14] = Acute toxicity in Wistar rat assessed as hypertrophied adrenal gland at 15 to 279 mg/kg, iv administered as pluronic F127 formulation and measured for 14 days; assay type: organism-based; details: in vivo, 336 h, dose 15-279 mg/kg, time 14 day
[15] = Acute toxicity in Wistar rat assessed as liver damage at 15 to 279 mg/kg, iv administered as pluronic F127 formulation and measured for 14 days; assay type: organism-based; details: in vivo, 336 h, dose 15-279 mg/kg, time 14 day
[16] = Acute toxicity in ICR mouse assessed as lethal dose administered intravenously as pluronic F127 formulation and measured for 14 days; details: in vivo, route iv, time 14 day
[17] = Acute toxicity in Wistar rat assessed as lethal dose administered intravenously as pluronic F127 formulation and measured for 14 days; details: in vivo, route iv, time 14 day
[18] = AUC (0 to t) in Soviet Chinchilla rabbit at 8.1 mg/kg, iv administered as pluronic F127 formulation measured upto 72 hrs by high-performance liquid chromatography tandem mass spectrometric analysis; assay type: ADME, organism-based, Oryctolagus cuniculus; set-up: dose 8.1 mg/kg, time < 72 hrs, route iv; details: in vivo
[19] = Ratio of AUC (t to infinity) to AUC (0 to infinity) in Albino Wistar rat at 15 mg/kg, iv administered as pluronic F127 formulation measured upto 72 hrs by high-performance liquid chromatography tandem mass spectrometric analysis; assay type: ADME, organism-based; details: in vivo
[20] = Half-life in Soviet Chinchilla rabbit at 8.1 mg/kg, iv administered as pluronic F127 formulation measured upto 72 hrs by high-performance liquid chromatography tandem mass spectrometric analysis; assay type: ADME, organism-based, Oryctolagus cuniculus; details: in vivo
[21] = Volume of distribution in Soviet Chinchilla rabbit at 8.1 mg/kg, iv administered as pluronic F127 formulation measured upto 72 hrs by high-performance liquid chromatography tandem mass spectrometric analysis; assay type: ADME, organism-based, Oryctolagus cuniculus; details: in vivo
[22] = Volume of distribution in Albino Wistar rat at 15 mg/kg, iv administered as pluronic F127 formulation measured upto 72 hrs by high-performance liquid chromatography tandem mass spectrometric analysis; assay type: ADME, organism-based; details: in vivo
[23] = Subchronic toxicity in Wistar rat assessed as cumulative effect of drug at 58 mg/kg, iv administered as pluronic F127 formulation daily for 28 days; assay type: organism-based; details: in vivo, 672 h, time 28 day
[24] = Subchronic toxicity in Wistar rat assessed as tolerance at 58 mg/kg, iv administered as pluronic F127 formulation daily for 28 days; assay type: organism-based; details: in vivo, 672 h, time 28 day
[25] = Chronic toxicity in rat assessed as reduction in number of crossed squares at 22.5 mg/kg, iv administered as pluronic F127 formulation at 4 intervals for 21 days and observed 3 weeks post last injection; assay type: organism-based; details: in vivo, 2544 h, time 106 day
[26] = Chronic toxicity in rat assessed as reduction in standing up at 22.5 mg/kg, iv administered as pluronic F127 formulation at 4 intervals for 21 days and observed 3 weeks post last injection; assay type: organism-based; details: in vivo, 2544 h, time 106 day
[27] = Chronic toxicity in rat assessed as reduction in number of peeping into holes at 22.5 mg/kg, iv administered as pluronic F127 formulation at 4 intervals for 21 days and observed 3 weeks post last injection; assay type: organism-based; details: in vivo, 2544 h, time 106 day
[28] = Chronic toxicity in rat assessed as neurological disorder at 22.5 mg/kg, iv administered as pluronic F127 formulation at 4 intervals for 21 days and observed 3 weeks post last injection; assay type: organism-based; details: in vivo, 2544 h, time 106 day
[29] = Chronic toxicity in rat assessed as change in volume of excreted urine at 15 mg/kg, iv administered as pluronic F127 formulation at 4 intervals for 21 days and observed 3 weeks post last injection; assay type: organism-based; details: in vivo, 2544 h, time 106 day
[30] = Chronic toxicity in rat assessed as change in relative heart mass at 15 to 18.75 mg/kg, iv administered as pluronic F127 formulation for 4 intervals of 21 days and observed 3 weeks post last injection relative to control; assay type: organism-based; details: in vivo, 2544 h, dose 15-18.75 mg/kg, time 106 day
[31] = Chronic toxicity in rat assessed as increase in relative lung mass administered intravenously as pluronic F127 formulation for 4 intervals of 21 days and observed 3 weeks post last injection relative to control; details: in vivo, iv, 2544 h, time 106 day
[32] = Chronic toxicity in Soviet Chinchilla rabbit assessed as external signs of intoxication administered intravenously as pluronic F127 formulation at 4 intervals for 21 days and observed 3 weeks post last injection; set-up: species or system Oryctolagus cuniculus; details: in vivo, iv, 2544 h, time 106 day
[33] = Chronic toxicity in Soviet Chinchilla rabbit assessed as animal death administered intravenously as pluronic F127 formulation at 4 intervals for 21 days and observed 3 weeks post last injection; set-up: species or system Oryctolagus cuniculus; details: in vivo, iv, 2544 h, time 106 day
[34] = Chronic toxicity in Soviet Chinchilla rabbit assessed as increase in relative liver mass administered intravenously as pluronic F127 formulation at 4 intervals for 21 days and observed 3 weeks post last injection relative to control; assay type: tissue-based, Oryctolagus cuniculus; details: in vivo, iv, 2544 h, time 106 day

For CC(=O)O[C@@]12CO[C@@H]1C[C@H](O)[C@@]1(C)C(=O)[C@H](O)C3=C(C)[C@@H](OC(=O)[C@H](OC(=O)CCCc4cn(CCCNC(=O)[C@H](Cc5ccc(O)cc5)NC(=O)[C@H](Cc5ccccc5)NC(=O)CCC(=O)NCCCCCC(=O)N(CCCC[C@H](NC(=O)N[C@@H](CCC(=O)O)C(=O)O)C(=O)O)Cc5cccc(Cl)c5)nn4)[C@@H](NC(=O)OC(C)(C)C)c4ccccc4)C[C@@](O)([C@@H](OC(=O)c4ccccc4)[C@H]21)C3(C)C, the CC50 (PC-3 [1]) was 2.8 nM, the Selectivity ratio [2] was 1 and the Activity (PC-3 [3]) was “Active”. The Activity (PC-3 [4]) was “Active”, the Stability [5] was “Unstable” and the Stability [6] was “Unstable”. For the same molecule, the Activity (CWR22R [7]) was 80%, the inhibition in vivo at 10 mg/kg (CWR22R [8]) was 87% and the inhibition in vivo at 20 mg/kg (CWR22R [9]) was 85%. The Activity (DU-145 [10]) was 190.1%, the inhibition in vivo at 60 mg/kg (DU-145 [11]) was 83.7% and the Activity [12] was “Toxic”. For the same molecule, the Activity [13] was “Toxic”, the Activity [14] was “Toxic” and the Activity [15] was “Toxic”. The LD50 at 336 h [16] was 409 mg/kg and 210 µmol/kg, the LD50 at 336 h [17] was 58 mg/kg and 30 µmol/kg and the AUC(0-t) at 72 h [18] was 253 µg·h/mL. For the same molecule, the “Ratio AUC” value [19] was 11%, the half-life [20] was 8.1 h and the Vd [21] was 0.332 L/kg. For the same molecule, the Vd [22] was 0.631 L/kg, the Activity [23] was “Toxic” and the Activity [24] was “Toxic”. For the same molecule, the Activity [25] was “Toxic”, the Activity [26] was “Toxic” and the Activity [27] was “Toxic”. For the same molecule, the Activity [28] was “Toxic”, the Activity [29] was “Non-Toxic” and the Activity [30] was “Toxic”. For the same molecule, the Activity [31] was “Toxic”, the Activity [32] was “Non-Toxic” and the Activity [33] was “Non-Toxic”. For the same molecule, the Activity [34] was “Toxic”.
